Data on three compounds can be found in patent US7745619B2, “Vinca derivatives” (priority 2003, dated 2010).

A value given as a limit tells only on which side of the number the result lay.

Common to all, as to type: cell-based
One assay concerns MDA-MB-231/ATCC. The experiment in a line: NCI 60-cell line growth inhibition assay: MDA-MB-231/ATCC. The conditions noted are these: Homo sapiens, MDA-MB-231.
The subject of a further assay is OVCAR-4. Briefly: NCI 60-cell line growth inhibition assay: OVCAR-4. The conditions noted are these: Homo sapiens.
In another assay the test system is MOLT-4. Briefly: NCI 60-cell line growth inhibition assay: MOLT-4. The conditions noted are these: Homo sapiens.
The next assay deals with RXF 393. Briefly: NCI 60-cell line growth inhibition assay: RXF 393. The conditions noted are these: Homo sapiens.
Another assay has as its system M14. Briefly: NCI 60-cell line growth inhibition assay: M14. The conditions noted are these: Homo sapiens.
The subject of a further assay is HL-60(TB). Briefly: cells. The conditions noted are these: Homo sapiens, Leukemia.
In a further assay the test system is K-562. The experiment in a line: NCI 60-cell line growth inhibition assay: K-562. The conditions noted are these: Homo sapiens, K562.
Another assay relates to SK-MEL-2. The experiment in a line: NCI 60-cell line growth inhibition assay: SK-MEL-2. The conditions noted are these: Homo sapiens.
Another assay concerns HOP-92. The experiment in a line: NCI 60-cell line growth inhibition assay: HOP-92. The conditions noted are these: Homo sapiens.
The next assay has as its system IGROV1. The experiment in a line: NCI 60-cell line growth inhibition assay: IGROV1. The conditions noted are these: Homo sapiens, IGROV-1, Ovarian. From the text: (§1) The following data in Table 4 summarize the growth inhibition properties of several compounds of the present invention against 60-human transformed cell lines.
For the next assay, the system named is HS 578T. The experiment in a line: NCI 60-cell line growth inhibition assay: HS 578T. The conditions noted are these: Homo sapiens, Hs-578T.
A further assay has as its system NCI-H226. The conditions noted are these: Homo sapiens, Non-Small Cell Lung.
Text: as §1

In the next assay the test system is UACC-62. The experiment in a line: NCI 60-cell line growth inhibition assay: UACC-62. The conditions noted are these: Homo sapiens.
The next assay has as its system 786-0. Briefly: NCI 60-cell line growth inhibition assay: 786-0. The conditions noted are these: Homo sapiens.
Another assay relates to SR. Briefly: NCI 60-cell line growth inhibition assay: SR. The conditions noted are these: Homo sapiens, Leukemia.
Text: as §1

The next assay relates to HOP-62. The experiment in a line: NCI 60-cell line growth inhibition assay: HOP-62. The conditions noted are these: Homo sapiens.
Another assay concerns MALME-3M. Briefly: NCI 60-cell line growth inhibition assay: MALME-3M. The conditions noted are these: Homo sapiens, Malme-3M.
The next assay relates to NCI-H23. The conditions noted are these: Homo sapiens.
In a further assay the test system is BT-549. Briefly: NCI 60-cell line growth inhibition assay: BT-549. The conditions noted are these: Homo sapiens.
In another assay the test system is T-47D. Briefly: NCI 60-cell line growth inhibition assay: T-47D. The conditions noted are these: Homo sapiens, T47D, Breast.
Text: as §1

A further assay deals with UO-31. The experiment in a line: NCI 60-cell line growth inhibition assay: UO-31. The conditions noted are these: Homo sapiens.
For another assay, the system named is SNB-75. The experiment in a line: NCI 60-cell line growth inhibition assay: SNB-75. The conditions noted are these: Homo sapiens.
A further assay concerns OVCAR-5. Briefly: NCI 60-cell line growth inhibition assay: OVCAR-5. The conditions noted are these: Homo sapiens.
The next assay concerns SK-MEL-28. Briefly: NCI 60-cell line growth inhibition assay: SK-MEL-28. The conditions noted are these: Homo sapiens, Melanoma.
Text: as §1

Turning to `CCCC(=O)/C=C/c1ccc2[nH]c3c(c2c1)CCN1C[C@H](C[C@@](O)(CC)C1)C[C@]3(C(=O)OC)c1cc2c(cc1OC)N(C)[C@H]1[C@@](O)(C(=O)OC)[C@H](OC(C)=O)[C@]3(CC)C=CCN4CC[C@]21[C@@H]43` [Example 29, 12′-(3-oxohex-1-enyl)vinblastine], the GI50 (in general, the concentration giving 50% growth inhibition) in the assay with MDA-MB-231/ATCC is less than 10 nM; in the assay with OVCAR-4, 21.1 nM; in the assay with MOLT-4, 11 nM; with RXF 393, 268 nM; in the assay on M14, less than 10 nM; in the assay on HL-60(TB), 244 nM. For the same compound, the GI50 in the assay on K-562 was less than 10 nM; with SK-MEL-2, 9770 nM; in the assay with HOP-92, 9930 nM; with IGROV1, 1710 nM; with HS 578T, 628 nM; in the assay on NCI-H226, less than 10 nM. In addition, the 50% growth inhibitory concentration (GI50) was less than 10 nM in the assay with UACC-62, less than 10 nM in the assay on 786-0, 396 nM in the assay on SR and less than 10 nM in the assay on HOP-62.

`CC[C@]1(O)C[C@H]2CN(CCc3c([nH]c4ccc(C#Cc5ccccc5)cc34)[C@@](C(=O)OC)(c3cc4c(cc3OC)N(C)[C@H]3[C@@](O)(C(=O)OC)[C@H](OC(C)=O)[C@]5(CC)C=CCN6CC[C@]43[C@@H]65)C2)C1` [Example 19, 12′-(2-phenylethynyl) vinblastine]: the concentration for 50% growth inhibition (GI50) with MALME-3M worked out at 254 nM; in the assay on MDA-MB-231/ATCC it was 2020 nM; in the assay on NCI-H23, 541 nM; with OVCAR-4, 1550 nM; in the assay on MOLT-4, 196 nM; with RXF 393 it was 619 nM. Further, the GI50 was 260 nM with M14; 2290 nM with SK-MEL-2; 335 nM with HOP-92; 1890 nM in the assay on BT-549; 2210 nM in the assay with IGROV1; 1850 nM in the assay with HS 578T. Moreover, the concentration for 50% growth inhibition (GI50) in the assay on T-47D was 4750 nM; in the assay with UACC-62 it was 2040 nM; in the assay on UO-31, 2200 nM; with SNB-75, 530 nM; in the assay with OVCAR-5 it was 1780 nM; with 786-0, 889 nM. Besides, the 50% growth inhibitory concentration (GI50) with SK-MEL-28 stood at 1270 nM; in the assay with HOP-62, 571 nM.

Consider `CCC1=C[C@H]2CN(CCc3c([nH]c4ccc(Br)cc34)[C@@](C(=O)OC)(c3cc4c(cc3OC)N(C)[C@H]3[C@@](O)(C(=O)OC)[C@H](OC(C)=O)[C@]5(CC)C=CCN6CC[C@]43[C@@H]65)C2)C1` [Example 97, 12′-bromoanhydro vinblastine], for which the GI50 is 1420 nM with MALME-3M; less than 10 nM in the assay on MDA-MB-231/ATCC; 325 nM in the assay with NCI-H23; less than 10 nM in the assay on MOLT-4; less than 10 nM in the assay on M14; less than 10 nM in the assay with HL-60(TB). For the same compound, the 50% growth inhibitory concentration (GI50) in the assay with K-562 is less than 10 nM; in the assay with HOP-92, 12200 nM; in the assay on IGROV1, less than 10 nM; in the assay with HS 578T it was less than 10 nM; in the assay on NCI-H226 it was less than 10 nM; in the assay with T-47D, 19400 nM. Besides, the GI50 was less than 10 nM with UACC-62; 12200 nM in the assay on SNB-75; 12.4 nM with OVCAR-5; less than 10 nM in the assay with 786-0; 3310 nM in the assay with SK-MEL-28; less than 10 nM with HOP-62.
